Source: patent US12663426B2, “Method and composition for measurement of nitric oxide” (The University of Chicago, priority 2019, dated 2026)

What was measured:
NOS3 = target: T1, NOS3 (Homo sapiens, UniProt P29474); test: Steady state NOS3 activity imaging at plasma membrane and TGN with NOckout probes; type: cell-based; settings: T-47D cells
T1 construct: endogenous, basal NOS3 activity was estimated at each of these sub-cellular locations in T-47D cells; endogenous in cells; host or cells: T-47D cells
Experimental: Image acquisition. T-47D cells were maintained as mentioned above in the cell culture section. Cells were washed twice with Hank's balanced salt solution (HBSS) before incubating them with 500 nM NOckout^TGN for 30 min or 500 nM NOckout^PM for 10 min at 37° C. followed by 3 washes with HBSS solution to remove any unloaded sensors. For steady state imaging (FIG. 1), cells were treated with indicated agonists or antagonists for 1 hr in complete RPMI-1640 medium. Care was taken not to exceed the final concentration of DMSO>1% at any time of the experiment. Additionally, 1% DMSO was used as a negative control in untreated (Basal) cells. […] The cells are then washed and imaged (FIG. 1f).
For simultaneous imaging cells were treated with 500 nM NOckout^TGN for 30 min where last 10 min cells were co-incubated with 500 nM NOckout^PM. In order to achieve lowest signal (PTIO, FIG. 1e-f) or to achieve bleaching profile (PTIO, FIG. 3e) cells were pre-treated with 500 μM PTIO for 15 minutes. Images were captured on a Laser scanning confocal Leica SP8 microscope using 63×, 1.4UV NA objective. Desired excitation and emission wavelengths was achieved using white light laser along with notch filters and acousto-optical tunable filters. A488, DAR and A647 were imaged using the following settings—Alexa488 (λex=488 nm, λem=500 nm to 540 nm), DAR (λex=554 nm, λem=565 nm to 610 nm) and Alexa647 (λex=647 nm, λem=665 nm to 710 nm).
Image analysis was performed using Fiji (Schindelin, J. et al. Fiji: an open-source platform for biological-image analysis. Nat Methods 9, 676-682 (2012)). Auto-fluorescence was subtracted from images for ratiometric analysis. For representation, images were further processed by smooth and despeckle functions. In order to present G/B or G/R images, a mask for each image was constructed using Otsu thresholding method, and mask-multiplied images were used for division. The ROI plugin in Fiji was used to select either TGN (Alexa647 channel) or PM (Alexa488 channel) and these ROIs were recalled in DAR channel to measure intensity in all three channels.
Next, endogenous, basal NOS3 activity was estimated at each of these sub-cellular locations in T-47D cells without explicitly activating NOS3. To do this, the ratiometric NOckout^PM response, i.e. the G/B ratio, was first measured under conditions where cells were depleted of NO using the NO scavenger 2-phenyl-4,4,5,5-tetramethylimidazoline-1-oxyl 3-oxide (PTIO, 300 μM) (Goldstein, S., Russo, A. & Samuni, A. Reactions of PTIO and carboxy-PTIO with *NO, *NO2, and O2−*. J Biol. Chem. 278, 50949-50955 (2003)). […] These two extreme cases provide the minimum and maximum G/B signals afforded by NOckout^PM in the cell (FIG. 1e-f). The G/B values under any subsequent condition are normalized to the maximum G/B signal. […]

TLR-9 and TLR-21 = test: Phagosomal NO in zebrafish microglia with NOckout^zCpG; type: in vivo
Description: Zebrafish brain was imaged in the optic tectum using an upright Zeiss LSM-710 confocal microscope equipped with water immersion objectives (20×, or 40×). Zebrafish larvae (3-4 dpf were mounted dorsally in a 1.5% low-melting point agar-bed on a confocal imaging dish (3.5 cm glass bottom). E3-containing 0.003% MS-222 was present in the imaging dish though out the imaging section. For NOckout injected samples, images were acquired simultaneously in GFP, DAR, and A647N channels using excitation wavelengths 488 nm, […] from Argon-ion (488 nm), Helium-Neon (543 nm & 632 nm) laser sources respectively. pHrodo was imaged using the same settings as that of DAR.
Image analysis: A MATLAB based program called Findosome was used to calculate the (G/R) values of individual endosomes from the acquired images. […] For each ROI, the program calculates fluorescence intensities both in the normalizing channel (A647, R) as well as in the DAR (G) channel. […] From the results, (G/R) value for individual endosomes can be calculated. Phagosomal (G/R) values from the zebrafish microglia are calculated using Fiji software. […] Fluorescence intensities in A647 and DAR channels were calculated. […] For (G/R) ratio quantification experiments, only those vesicles that are present in both green (G) and red (R) channels were considered. […]

T-47D cells = test: Golgi fragmentation (Giantin/GM130 immunofluorescence); type: cell-based
Experimental: (§1) Immunofluorescence staining. Cells were cultured on a glass bottom 3.5 cm imaging dish to reach 60% confluency. […] Treated cells were then washed three times with 1× PBS (pH 7.4) and fixed using, 4% paraformaldehyde at room temperature (RT, 15 min). Subsequently, cells were permeabilized using 0.25% triton X-100 followed by blocking using 3% BSA in 1× PBS. Cells were then incubated with indicated primary antibodies—mouse monoclonal anti-eNOS antibody (SantaCruz Cat #sc-376751), Polyclonal Anti-S-nitrosocysteine antibody (Abeam Cat #ab94930 or Abeam Cat #ab50185), Rabbit polyclonal Anti-Giantin antibody (Abeam Cat #ab24586) or Mouse monoclonal Anti-GM130 antibody (BD Biosciences Cat #610822) in blocking buffer (3% BSA in 1× 4 PBS) for 1 hour at RT. Cells were then washed for 5 min with 1× PBS (3×). Respective secondary antibodies conjugated with either Alexafluor 488 or Alexafluor 647 were added to the cells and incubated for 1 hr at RT. Cells were washed again to remove excess secondary antibody using 1× PBS for 5 min (3×). Hoechst 33342 (5 μM) was added 10 min prior to imaging to stain nuclear DNA. Cells were then imaged on a Leica SP8 laser scanning confocal microscope using excitation wavelengths 405 nm (Hoechst), 488 nm (AlexaFluor 488) and 647 nm (AlexaFluor 647). Images were processed using Fiji and maximum z-projection of 2-3 z-planes are used in representative images.
Golgi fragmentation was quantified with immunofluorescence images of Golgi structural protein Giantin. Merge images of Hoechst and Giantin allowed identification of cell numbers and enumeration of Golgi fragments per cell (≤3 Golgi fragments per cell was considered intact Golgi) (Lee, J. E. et al. Dependence of Golgi apparatus integrity on nitric oxide in vascular cells: implications in pulmonary arterial hypertension. Am. J. Physiol. Heart Circ. Physiol. 300, H1141-58 (2011)). […]
Small molecule inhibitors were then screened to identify the molecular pathway by which NOS3 inhibition induces Golgi fragmentation. This is based on the rationale that inhibiting a protein on this pathway should also block methylene blue-induced Golgi fragmentation. […] A range of small molecule inhibitors against kinases that have previously ascribed roles in Golgi fragmentation were then used. DNA-PK with NU7441 was ruled out (Farber-Katz, S. E. et al. DNA damage triggers Golgi dispersal via DNA-PK and GOLPH3. Cell 156, 413-427 (2014)). Compounds containing an indirubin core have broad specificity for Cyclin dependent kinases (CDKs) and Src kinases. […] CDK1, CDK2 and CDK5 were ruled out, using (R)-Roscovitine (Rosco).

[1] = test system: S-nitrosylation at the Golgi; test: Anti-S-nitrosocysteine immunostaining of T-47D cells; type: cell-based
Experimental: as §1
In order to address the significance of the […] population of NOS3 at the TGN, T-47D cells were immunostained using an antibody specific to S-nitrosocysteine.
Similar observations were made in MCF-7 cells upon NO depletion (FIG. 23). These studies reveal that the Golgi is a cellular hot-spot for 5-nitrosylation of proteins by NOS3, where it is essential for the maintenance of Golgi architecture in breast cancer cells. […] In addition to Golgi fragmentation, NO scavenging also hampered cell growth by inducing cell sensescence (FIG. 24).

NOS2 = target: T2, NOS2 (Mus musculus, UniProt P29477); test: In cellulo specificity of NOckout to NO in LPS primed J774A.1 cells; type: cell-based; settings: LPS primed J774A.1 cells, 1400 W 10 μM
T2 construct: J774A.1 cells were treated with 1 μg/mL LPS for 12 h prior to the addition of NOckout; endogenous in cells; host or cells: J774A.1 macrophages primed with LPS
Experimental: Pharmacological inhibition: Pharmacological inhibition of different enzymes were performed by employing known inhibitors. […] Cells were bathed in inhibitors 1 h prior to the addition of NOckout probes during the specificity experiment performed in J774A.1 cells.
In cellulo specificity of NOckout to NO: In cellulo specificity of the NOckout probe towards NO^− was validated in J774A.1 cells. […] J774A.1 cells were treated with 1 μg/mL LPS for 12 h prior to the addition of NOckout (500 nM in HBSS) either in the presence or in absence of specific inhibitors. LPS addition was employed to induce the expression of NOS2NOX and MPO. […] After 90 minutes of incubation with the NOckout culture media was removed from the cells and three washes were performed using HBSS to remove extracellular NOckout before proceeding to the fluorescence imaging. […]
The in-cell specificity of NOckout can be evaluated by measuring the contribution of the reactive species produced by NOX, MPO and NOS2 to the observed fold change in G/R ratio upon LPS stimulation. […] As NOS2 activity is not pan-endosomal, specificity is given by quantifying the percentage of endosomes that show G/R values higher than the mean G/R value in endosomes of unstimulated, NOS2 inhibited cells, as the latter corresponds to basal endosomal NO levels (FIG. 6c).

## CC(=N)NCc1cccc(CN)c1 [1400 W]
NOS3
  G/B and G/R values of NOckout probes (NOS3 activity): no effect
TLR-9 and TLR-21
  reduction of phagosomal G/R versus NOckout^zCpG: ~50%
T-47D cells
  Golgi fragmentation by treatment alone: none of these treatments fragmented the Golgi
[1]
  S-nitrosylation at the Golgi: no change
NOS2
  reduction of NOckout signal: ~50%
